# System: mitochondrial complex I (MC-I)
# Experiment: PET measurement of the amount (SUV) of MC-I probe accumulated in each tissue and organ of type 2 diabetes model rats (Test Examples 1 and 2)
# Assay type: in vivo
# Conditions: brain, heart, brown adipocytes, pancreas, liver, kidneys; 5, 8, 16, 26 weeks of age; i.v. about 20 MBq; except brown adipocytes and kidneys at 5 weeks of age (FIG. 4)
# Excerpt: Male Zucker Leprfa/Leprfa rats (hereinafter also referred to as “fatty rats”) that develop pathological conditions similar to type 2 diabetes of human adults and male Zucker Leprfa/+ rats (hereinafter also referred to as “lean rats”) as controls thereof were purchased from Charles River Laboratories Japan, Inc., and used for PET measurement at 5, 8, 16, and 26 weeks of age, and the amount of [^18F]BCPP-BF accumulated in each tissue and organ (brain, heart, kidneys, liver, and brown adipocytes (brown adipose tissue)) was measured.
# The rats were anesthetized with isoflurane and fixed in a gantry of an animal PET camera (SHR-38000, manufactured by Hamamatsu Photonics K.K.). […]
# After the completion of the PET measurement, a region of interest was set on the pancreas identified by an integrated PET image 40 to 60 minutes after the administration of D-[^11C]MT, and the amount of [^18F]BCPP-BF accumulated in the region of interest was calculated. Subsequently, the calculated accumulation amount was normalized by the amount of radioactivity administered and the body weight of each individual and defined as an amount (amount (SUV) of radioactivity accumulated) of [^18F]BCPP-BF accumulated in the pancreas. […] The amount (SUV) of radioactivity accumulated in the brain was calculated by excising the brains from the rats immediately after the PET measurement. […]
smiles,measurement,value
CC(C)(C)n1ncc(OCc2ccc(OCCCC[18F])nc2)c(Cl)c1=O [[^18F]BCPP-BF],"accumulation amount (SUV) in each tissue and organ, fatty rats versus lean rats",significantly lower

# Reference: patent US20230364273A1, “AGENT FOR DETECTING INTERACTION BETWEEN TISSUES AND ORGANS” (HAMAMATSU PHOTONICS K.K., priority 2020, published 2023)
